A short description of experiment [1]: Hypothermia in mice after subcutaneous injection. In kind it is in vivo. The settings on record: Mus musculus, sc, dose depressing body temperature by 2° C. in two of four mice.
Experimental: Starting with a dose of 30 mg/kg, four mice are injected subcutaneously with test compound. Twenty minutes later, the number of animals whose body temperature has decreased by 2° C. or more are counted. […] The time for last statistically significant drug affect on mean body temperature is indicated in minutes. […] Potency is given as mg/kg ED50 (dose required to depress temperature in two of four mice) as measured by Spearman-Karber statistics.
For experiment [2] the following is noted: cited from earlier work.
In another experiment the test system is 5-HT receptor. Particulars: J. Med. Chem., 30, 2105 (1987); cited from earlier work.
Another experiment concerns dopamine receptors. The settings on record: background; cited from earlier work.
For experiment [3] the following is noted: background, cited from earlier work.

Where a name gives a salt, the structure may show the parent alone.

On to `C=CCN[C@H]1CCc2cccc(OC)c2[C@H]1CC=C` (relative stereo) [Example 26, Compound 1, Cis-(±)-1,2,3,4-Tetrahydro-8-methoxy-N,1-di-(2-pro-penyl)-2-naphthalenamine Hydrochloride], for which the 50% effect level in experiment [1] (ED50) was put at a dose of 2.31 mg/kg.
In the case of `CN(C)C1CCc2ccc(O)cc2C1(C)C` (stereo not drawn) [1,1-Dimethyl-2-(N,N-dimethylamino)-7-hydroxytetralin], the “analgesic and intestinal activity” value in experiment [2] (Chem. Ab., 79: 146294b) is “analgesic and intestinal movement accelerating actions”.
As to `COc1cccc2c1CCC(NC1CC1)C2C` (stereo not drawn) [1-methyl-2-(cyclopropylamino)-5-methoxytetralin], the “local anesthetic activity” value in experiment [2] (J. Pharm. Sci., 67, 880-82 (1978)) is reported as “local anesthetic activity”.
For `CCCN(CCC)C1CCc2cccc(O)c2C1C` (stereo not drawn) [8-hydroxy-1-methyl-2-(di-n-propylamino)tetralins], in the experiment on 5-HT receptor, the “5-HT receptor agonism” value is recorded as 5-HT receptor agonists.
In the case of `O=C1CC2(CCCC2)CC(=O)N1CCCCN1CCN(c2ncccn2)CC1` [Buspirone], the “dopamine receptor activity” value in the experiment with dopamine receptors is reported as “antagonizes dopamine receptors at the same dose it stimulates 5-HT1A receptors”.
On to `CC1(C)CC(=O)N(CCCCN2CCN(c3ncccn3)CC2)C(=O)C1` [Gepirone], for which, in experiment [3] (clinical), the “anxiolytic / anti-anxiety activity” value is given as “clinically demonstrated anti-anxiety activities”. For the same compound, the “effect on depressive endpoints” value in experiment [3] (some patients) is listed as “ameliorative effects on some depressive endpoints in some patients”. The “dopamine receptor activity” value in the experiment on dopamine receptors is “also has dopamine antagonist properties”.
For `CN1CCc2cccc3c2[C@H]1Cc1ccc(O)c(O)c1-3` [apomorphine], in the experiment on dopamine receptors, the “dopamine receptor activity” value is reported as “able to activate the dopamine autoreceptors as well as the post synaptic dopamine receptors”.

For orientation: ED50 means the midpoint of the dose-response relation. Read a low ED50 as an effect at a small dose.

Values taken from patent US6331636A, “Therapeutically useful 2-aminotetralin derivatives” (priority 1992, dated 2001).
